From PubChem BioAssay AID2060897 (Molecular Pharmacology Branch, DTP, NCI, 2025)

Test system: 966289-007-R4-J1-PDC complex spheroid viability
Experiment: Anticancer human tumor 966289-007-R4-J1-PDC patient-derived pancreatic adenocarcinoma cell line growth inhibition [RAS]
Conditions: for IC50: curve of first compound; for viability, T/C: stronger effect = lower value
Method in brief: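 Agents were tested in combination matrices in half-log decrements from a top concentration at or near clinical Cmax (10 microM if undetermined). Targets were multi-cell spheroids of tumour lines plus HUVEC and MSC stromal cells.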
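Also: spheroids exposed to agents for one week before readout.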
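For viability, T/C in this document: percent viability relative to DMSO vehicle control wells as 100%.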

## C[C@@H](NC(=O)c1ncnc(N)c1Cl)c1ncc(C(=O)Nc2cc(C(F)(F)F)c(Cl)cn2)s1 + CCn1c(-c2cccnc2C(C)OC)c2c3cc(ccc31)N1CCOC(CC(NC(=O)C(C(C)C)N(C)C(=O)C3(F)CCN(C(=O)C#CC(C)(C)N(C)C)CC3)C(=O)N3CCCC(N3)C(=O)OCC(C)(C)C2)C1
Second compound 0.000949 µM
  IC50: > 10 µM
Second compound 0.003 µM
  IC50: > 10 µM
Second compound 0.00949 µM
  IC50: > 10 µM
Second compound 0.03 µM
  IC50: > 10 µM
Second compound 0.0949 µM
  IC50: > 10 µM
Second compound 0.3 µM
  IC50: > 10 µM
Second compound 0.000949 µM, first compound 0.0316 µM
  viability, T/C: 115%
Second compound 0.000949 µM, first compound 0.1 µM
  viability, T/C: 92.1%
Second compound 0.000949 µM, first compound 0.316 µM
  viability, T/C: 91.9%
Second compound 0.000949 µM, first compound 1 µM
  viability, T/C: 47.5%
Second compound 0.000949 µM, first compound 3.16 µM
  viability, T/C: 66.5%
Second compound 0.000949 µM, first compound 10 µM
  viability, T/C: 100%
Second compound 0.003 µM, first compound 0.0316 µM
  viability, T/C: 92.5%
Second compound 0.003 µM, first compound 0.1 µM
  viability, T/C: 75.4%
Second compound 0.003 µM, first compound 0.316 µM
  viability, T/C: 118%
Second compound 0.003 µM, first compound 1 µM
  viability, T/C: 61%
Second compound 0.003 µM, first compound 3.16 µM
  viability, T/C: 72.3%
Second compound 0.003 µM, first compound 10 µM
  viability, T/C: 118%
Second compound 0.00949 µM, first compound 0.0316 µM
  viability, T/C: 70.2%
Second compound 0.00949 µM, first compound 0.1 µM
  viability, T/C: 80.6%
Second compound 0.00949 µM, first compound 0.316 µM
  viability, T/C: 71.3%
Second compound 0.00949 µM, first compound 1 µM
  viability, T/C: 85%
Second compound 0.00949 µM, first compound 3.16 µM
  viability, T/C: 115%
Second compound 0.00949 µM, first compound 10 µM
  viability, T/C: 111%
Second compound 0.03 µM, first compound 0.0316 µM
  viability, T/C: 55.4%
Second compound 0.03 µM, first compound 0.1 µM
  viability, T/C: 57.1%
Second compound 0.03 µM, first compound 0.316 µM
  viability, T/C: 81%
Second compound 0.03 µM, first compound 1 µM
  viability, T/C: 73.5%
Second compound 0.03 µM, first compound 3.16 µM
  viability, T/C: 120%
Second compound 0.03 µM, first compound 10 µM
  viability, T/C: 98.5%
Second compound 0.0949 µM, first compound 0.0316 µM
  viability, T/C: 55.5%
Second compound 0.0949 µM, first compound 0.1 µM
  viability, T/C: 99.1%
Second compound 0.0949 µM, first compound 0.316 µM
  viability, T/C: 87%
Second compound 0.0949 µM, first compound 1 µM
  viability, T/C: 78.2%
Second compound 0.0949 µM, first compound 3.16 µM
  viability, T/C: 106%
Second compound 0.0949 µM, first compound 10 µM
  viability, T/C: 134%
Second compound 0.3 µM, first compound 0.0316 µM
  viability, T/C: 65.6%
Second compound 0.3 µM, first compound 0.1 µM
  viability, T/C: 91.7%
Second compound 0.3 µM, first compound 0.316 µM
  viability, T/C: 90.5%
Second compound 0.3 µM, first compound 1 µM
  viability, T/C: 117%
Second compound 0.3 µM, first compound 3.16 µM
  viability, T/C: 146%
Second compound 0.3 µM, first compound 10 µM
  viability, T/C: 105%

## CC(=O)OC12COC1CC(O)C1(C)C(=O)C(O)C3=C(C)C(OC(=O)C(O)C(NC(=O)OC(C)(C)C)c4ccccc4)CC(O)(C(OC(=O)c4ccccc4)C21)C3(C)C (centres undefined) + C#Cc1c(F)ccc2cc(O)cc(-c3ncc4c(N5CC6CCC(C5)N6)nc(OCC56CCCN5CC(F)C6)nc4c3F)c12
Second compound 0.0316 µM
  IC50: < 0.0316 µM
Second compound 0.1 µM
  IC50: < 0.0316 µM
Second compound 0.316 µM
  IC50: < 0.0316 µM
Second compound 1 µM
  IC50: < 0.0316 µM
Second compound 3.16 µM
  IC50: < 0.0316 µM
Second compound 10 µM
  IC50: < 0.0316 µM
Second compound 0.0316 µM, first compound 0.0316 µM
  viability, T/C: 9.75%
Second compound 0.0316 µM, first compound 0.1 µM
  viability, T/C: 17.9%
Second compound 0.0316 µM, first compound 0.316 µM
  viability, T/C: 20.4%
Second compound 0.0316 µM, first compound 1 µM
  viability, T/C: 25.6%
Second compound 0.0316 µM, first compound 3.16 µM
  viability, T/C: 50.5%
Second compound 0.0316 µM, first compound 10 µM
  viability, T/C: 69.9%
Second compound 0.1 µM, first compound 0.0316 µM
  viability, T/C: 10.9%
Second compound 0.1 µM, first compound 0.1 µM
  viability, T/C: 17.9%
Second compound 0.1 µM, first compound 0.316 µM
  viability, T/C: 19.7%
Second compound 0.1 µM, first compound 1 µM
  viability, T/C: 24.3%
Second compound 0.1 µM, first compound 3.16 µM
  viability, T/C: 36.3%
Second compound 0.1 µM, first compound 10 µM
  viability, T/C: 70.3%
Second compound 0.316 µM, first compound 0.0316 µM
  viability, T/C: 10.4%
Second compound 0.316 µM, first compound 0.1 µM
  viability, T/C: 19.1%
Second compound 0.316 µM, first compound 0.316 µM
  viability, T/C: 19.3%
Second compound 0.316 µM, first compound 1 µM
  viability, T/C: 26%
Second compound 0.316 µM, first compound 3.16 µM
  viability, T/C: 49.9%
Second compound 0.316 µM, first compound 10 µM
  viability, T/C: 68.4%
Second compound 1 µM, first compound 0.0316 µM
  viability, T/C: 9.72%
Second compound 1 µM, first compound 0.1 µM
  viability, T/C: 18.3%
Second compound 1 µM, first compound 0.316 µM
  viability, T/C: 21.2%
Second compound 1 µM, first compound 1 µM
  viability, T/C: 31.8%
Second compound 1 µM, first compound 3.16 µM
  viability, T/C: 44.9%
Second compound 1 µM, first compound 10 µM
  viability, T/C: 71.8%
Second compound 3.16 µM, first compound 0.0316 µM
  viability, T/C: 10.6%
Second compound 3.16 µM, first compound 0.1 µM
  viability, T/C: 20.9%
Second compound 3.16 µM, first compound 0.316 µM
  viability, T/C: 25%
Second compound 3.16 µM, first compound 1 µM
  viability, T/C: 31.7%
Second compound 3.16 µM, first compound 3.16 µM
  viability, T/C: 44.6%
Second compound 3.16 µM, first compound 10 µM
  viability, T/C: 83.2%
Second compound 10 µM, first compound 0.0316 µM
  viability, T/C: 10.5%
Second compound 10 µM, first compound 0.1 µM
  viability, T/C: 16.6%
Second compound 10 µM, first compound 0.316 µM
  viability, T/C: 17.8%
Second compound 10 µM, first compound 1 µM
  viability, T/C: 27.1%
Second compound 10 µM, first compound 3.16 µM
  viability, T/C: 42.6%
Second compound 10 µM, first compound 10 µM
  viability, T/C: 53.9%
